Earlier results in US11414692B2, “Method and device for characterizing the inhibitory capacity of a molecule on a microorganism” (BIOMERIEUX, priority 2014, dated 2022).
In brackets after ≈: the same amount, converted by molar mass.

System: E. coli ATCC 25922
Conditions: manual technique, incubation time 18 to 24 h

gentamicin
MIC concentration recognized by the French government, or "regulatory" MIC: 0.5 µg/mL

CCn1cc(C(=O)O)c(=O)c2ccc(C)nc21 [nalidixic acid]
MIC concentration recognized by the French government, or "regulatory" MIC: 2 µg/mL (≈ 8.61 µM)

O=C(N[C@H](CO)[C@H](O)c1ccc([N+](=O)[O-])cc1)C(Cl)Cl [chloramphenicol]
MIC concentration recognized by the French government, or "regulatory" MIC: 4 µg/mL (≈ 12.4 µM)
